From US4361579A, “Organogermanium compounds” (Yoshitomi Pharmaceutical Industries, Ltd., priority 1979, dated 1982)

Columns and labels:
[1] = test system: emigrating leukocytes; assay: Potentiating Activity for Leukocyte Migration (CMC pouch); type: in vivo, rat (male Donryu); settings: 6 hours, vs control group
Protocol: The test was performed according to the method described by H. Ishikawa et al in "Yakugaku Zasshi (Journal of the Pharmaceutical Society of Japan)", vol. 88, 1472 (1968).
Male Donryu rats weighing about 150 g were divided into groups of 4 to 5 animals each. Five ml of 2% suspension of carboxymethylcellulose (CMC) in physiological saline was injected subcutaneously in the supra-scapular area. Compounds tested (0.4 ml/rat) were administered into the CMC pouch immediately after the injection of CMC suspension. Six hours later, 0.1 ml of fluid in the CMC pouch was collected and mixed with 6 ml of 0.05% brilliant cresyl blue solution in phosphate buffer (pH 7.2). The suspension was put in a Burker chamber and the emigrating leukocytes were counted under a microscope. The percent potentiation was calculated as compared with the count in the control group.

[2] = test system: plaque forming cells (PFC) in spleen; assay: Activity for Antibody Production: plaque forming cells (PFC) in spleen after sensitization with sheep red blood cells; type: in vivo, mouse (C57B1/6); settings: Control = 100, 7 days after sensitization
Protocol: (§1) C57B1/6 mice (6 week old, 20 g) were sensitized by intraperitoneally administering sheep red blood cells of 5×10^8 /0.1 ml. Compounds tested were given orally on the same day and next day of the sensitization. Seven days after the sensitization, the number of plaque forming cells (PFC) in spleen and of rosette forming cells (RFC) in spleen and thymus were measured in a usual manner.

[3] = test system: rosette forming cells (RFC) in spleen; assay: Activity for Antibody Production: rosette forming cells (RFC) in spleen after sensitization with sheep red blood cells; type: in vivo, mouse (C57B1/6); settings: Control = 100, 7 days after sensitization
Protocol: as §1

[4] = test system: rosette forming cells (RFC) in thymus; assay: Activity for Antibody Production: rosette forming cells (RFC) in thymus after sensitization with sheep red blood cells; type: in vivo, mouse (C57B1/6); settings: Control = 100, 7 days after sensitization
Protocol: as §1

[5] = test system: Adjuvant Arthritis; assay: Prophylactic Effect on Adjuvant Arthritis (hind feet swelling); type: in vivo, rat (Lewis male); settings: day 1 to day 20, hind feet swelling at 28 days
Protocol: The tails of Lewis male rats (250 g) were injected mycobacterium butyricum (0.5 mg/0.1 ml). Compounds tested were orally administered daily from the adjuvant inoculation day (day 1) to day 20. Swellings in the hind feet were measured at 28 days after the adjuvant inoculation.

[6] = test system: rat; assay: Acute Toxicity (rat, per os); type: in vivo; settings: 2000 mg/kg
Excerpt: | Acute Toxicity (rat, per os)

[7] = 30 mg/kg orally, *p < 0.05, **p < 0.01
[8] = 3 mg/kg orally, *p < 0.05, **p < 0.01

**Q.** Which “Potentiation (%)” value ([1]; 20 mg/rat into the CMC pouch) does the source give for “poly(carboxyethylgermanium sesquioxide) [Comparison, reference compound]” here?
**A.** Its value is 13%.

**Q.** What about the “PFC in Spleen” value ([2]; 30 mg/kg orally, *p < 0.05) of the same substance?
**A.** Its value is 100.

**Q.** What about the “RFC in Spleen” value ([3]; 30 mg/kg orally, **p < 0.01) of the same substance?
**A.** Its value is 121.

**Q.** What about the “RFC in Thymus” value [4, 7] of the same substance?
**A.** Its value is 168.

**Q.** And the “Inhibition (%)” value ([5]; 25 mg/kg orally daily)?
**A.** The value was -18%.

**Q.** And the “Inhibition (%)” value ([5]; 100 mg/kg orally daily)?
**A.** Its value is 15%.

**Q.** For “polycondensation product of p-(N-ethyl-2-ethoxycarbonylacetylamino)phenylgermanium trihydroxide”, which “Potentiation (%)” value ([1]; 0.25 mg/rat into the CMC pouch) is on record?
**A.** Its value is 7%.

**Q.** And the “Potentiation (%)” value ([1]; 5 mg/rat into the CMC pouch)?
**A.** Its value is 87%.

**Q.** What about the “Potentiation (%)” value ([1]; 20 mg/rat into the CMC pouch) of the same substance?
**A.** The value was 96%.

**Q.** How did the “Potentiation (%)” value ([1]; 5 mg/rat into the CMC pouch) turn out when “polycondensation product of p-(N-ethyl-3-ethoxycarbonylpropionylamino)phenylgermanium trihydroxide [Compound D]” was run?
**A.** Its value is 7%.

**Q.** And the “Potentiation (%)” value ([1]; 10 mg/rat into the CMC pouch)?
**A.** The value was 33%.

**Q.** What about the “Potentiation (%)” value ([1]; 20 mg/rat into the CMC pouch) of the same substance?
**A.** Its value is 210%.

**Q.** For “polycondensation product of p-(N-methyl-2-ethoxycarbonylacetylamino)phenylgermanium trihydroxide”, which “Potentiation (%)” value ([1]; 10 mg/rat into the CMC pouch) is on record?
**A.** Its value is 16%.

**Q.** What about the “Potentiation (%)” value ([1]; 20 mg/rat into the CMC pouch) of the same substance?
**A.** The value was 91%.

**Q.** And the “PFC in Spleen” value ([2]; 1 mg/kg orally)?
**A.** Its value is 110.

**Q.** And the “PFC in Spleen” value ([2]; 3 mg/kg orally)?
**A.** The value was 125.

**Q.** And the “PFC in Spleen” value ([2]; 30 mg/kg orally, *p < 0.05)?
**A.** The value was 175.

**Q.** What about the “RFC in Spleen” value ([3]; 1 mg/kg orally) of the same substance?
**A.** The value was 157.

**Q.** And the “RFC in Spleen” value ([3]; 3 mg/kg orally, *p < 0.05)?
**A.** The value was 346.

**Q.** What about the “RFC in Spleen” value ([3]; 30 mg/kg orally, **p < 0.01) of the same substance?
**A.** The value was 703.

**Q.** What about the “RFC in Thymus” value ([4]; 1 mg/kg orally, **p < 0.01) of the same substance?
**A.** The value was 315.

**Q.** And the “RFC in Thymus” value [4, 8]?
**A.** The value was 284.

**Q.** And the “RFC in Thymus” value [4, 7]?
**A.** Its value is 431.

**Q.** And the “Inhibition (%)” value ([5]; 10 mg/kg orally daily)?
**A.** The value was 22%.

**Q.** What about the “Inhibition (%)” value ([5]; 25 mg/kg orally daily) of the same substance?
**A.** Its value is 48%.

**Q.** What about the Mortality [6] of the same substance?
**A.** The Mortality was 0/5.

**Q.** Which results are given for “polycondensation product of p-(N-methyl-3-carboxypropionylamino)phenylgermanium trihydroxide”?
**A.** Potentiation (%) ([1]; 10 mg/rat into the CMC pouch): 26%; Potentiation (%) ([1]; 20 mg/rat into the CMC pouch): 47%; PFC in Spleen ([2]; 3 mg/kg orally): 68; RFC in Spleen ([3]; 3 mg/kg orally, *p < 0.05): 86; RFC in Thymus [4, 8]: 218; Inhibition (%) ([5]; 25 mg/kg orally daily): 35%; Inhibition (%) ([5]; 100 mg/kg orally daily): 53%

**Q.** Which “Potentiation (%)” value ([1]; 2.5 mg/rat into the CMC pouch) does the source give for “polycondensation product of p-(N-methyl-3-ethoxycarbonylpropionylamino)phenylgermanium trihydroxide” here?
**A.** The value was 17%.

**Q.** And the “Potentiation (%)” value ([1]; 5 mg/rat into the CMC pouch)?
**A.** Its value is 87%.

**Q.** What about the “PFC in Spleen” value ([2]; 30 mg/kg orally, *p < 0.05) of the same substance?
**A.** Its value is 81.

**Q.** And the “RFC in Spleen” value ([3]; 30 mg/kg orally, **p < 0.01)?
**A.** The value was 108.

**Q.** What about the “RFC in Thymus” value [4, 7] of the same substance?
**A.** Its value is 248.

**Q.** What about the “Inhibition (%)” value ([5]; 25 mg/kg orally daily) of the same substance?
**A.** Its value is 5%.

**Q.** What about the “Inhibition (%)” value ([5]; 100 mg/kg orally daily) of the same substance?
**A.** Its value is 31%.

**Q.** What does the source list for “polycondensation product of p-(N-methyl-4-carboxybutyrylamino)phenylgermanium trihydrodie”?
**A.** Potentiation (%) ([1]; 10 mg/rat into the CMC pouch): 44%; PFC in Spleen ([2]; 3 mg/kg orally): 95; RFC in Spleen ([3]; 3 mg/kg orally, *p < 0.05): 85; RFC in Thymus [4, 8]: 141

**Q.** With “polycondensation product of p-(N-methyl-4-ethoxycarbonylbutyrylamino)phenylgermanium trihydroxide” as the substance, how does the “Potentiation (%)” value ([1]; 20 mg/rat into the CMC pouch) read?
**A.** The value was 56%.

**Q.** Which results are given for “polycondensation product of p-(N-methyl-m-methylbenzoylamino)phenylgermanium trihydroxide”?
**A.** Potentiation (%) ([1]; 10 mg/rat into the CMC pouch): 46%; Potentiation (%) ([1]; 20 mg/rat into the CMC pouch): 55%
